Reference: patent US5173504A, “Bacteriochlorophyll-a derivatives useful in photodynamic therapy” (Health Research, Inc., priority 1991, dated 1992)

Columns and labels:
[1] = Beems et al., Photochemistry and Photobiology (1987); cited from earlier work
[2] = light absorption of bchla; type: physicochemical
Description: Bchla is essentially identical to the chlorophyll-a of higher plants except that ring B is in the dihydro form and the vinyl group in ring A is converted to an acetyl group. The wavelength absorption maximum of bchla is about 780 nm and the extinction coefficient in this region is quite high (E780= 75,000). This long wavelength absorption is advantageous because light penetrates tissues 2-3 times more effectively at a wavelength nearly 800 nm versus lower wavelengths, e.g., 630 nm.
Bacteriochlorophyll-a, obtained at >90% purity from Porphyrin Products (Logan, UT) was dissolved at a concentration of 5 mg/ml in Tween-80 (Sigma) by stirring for several hours or overnight. The resulting solution was mixed with 9 volumes of Hank's buffer solution with agitation until all of the detergent solution was dissolved. Any remaining particulate matter is removed by filtration and the concentration of the final solution is determined spectrophotometrically using a 1:100 dilution in distilled water (OD780= 87.3 for 1 mg/ml of concentrate). In general, if the initial solution of bchla is conducted carefully, the resulting formulation has a concentration of bchla of 0.5 mg/ml.

SMT-F tumors = assay: tumor response to photodynamic treatment in mice transplanted with SMT-F tumors; type: in vivo, DBA2/HaD mice
Method: DBA2/HaD mice were transplanted with SMT-F tumors. When the subcutaneous tumors reached 4.5-5.5 mm in diameter, the mice, in groups of five, were injected intravenously with the bchla solution of Example 1 in doses of 5-30 mg/kg. At a time 1 hour-5 days later, the tumor, previously shaved and depiliated, plus a margin of 2-3 mm was exposed to radiation of a wavelength in the range 630-800 nm using a Spectraphysics argon dye laser with Exciton LDS751 dye, tunable over the 700-800 nm range or a diode laser--e.g., Spectra Diode emitting in the 750-850 nm range or a Xenon arc lamp filtered with an interference filter to pass 90% of the 700 nm light ±60 nm at dose rates of 75-150 mw/cm^2. When the Xenon system was used, mild hyperthermia resulted (42° C. at 160 mW/cm^2). It is not known whether this temperature rise acts synergistically with bchla as has been shown with HpD and its active fraction.
Tumor response is shown in the table of FIG. 1 for the seventh day after light treatment which indicates regression, and at a time point at least 30 days after light treatment, which would indicate cure, if there had been no regrowth.

[3] = uptake and clearance in liver (extraction, HPLC); type: in vivo, DBA/2 Ha Mice
Method: (§1) Uptake and clearance of bchla in tumor and liver were measured by extraction of the tumor or liver tissue with 1:1MeOH:CH2 Cl2, followed by HPLC analysis.

[4] = uptake and clearance in tumor (extraction, HPLC); type: in vivo, DBA/2 Ha Mice
Method: as §1

stability of bchla = type: physicochemical
Description: Bchla is readily obtained by extraction from bacterial sources, and is available commercially from Porphyrin Products, Logan, UT.

[5] = tested on: tumors approximately 1 cm in depth; assay: light penetration: necrotic depth in tumors; type: in vivo; conditions: 20 mg/kg, irradiation after 1 hour, 270 J/cm^2 at 780 nm; histology the day following
Method: Comparison was made using bchla at 20 mg/kg with irradiation after 1 hour at 270 J/cm^2 at 780 nm, and DHE at 5 mg/kg after 1 hour at 270 J/cm^2 at 630 nm. Animals with tumors approximately 1 cm in depth were used in the comparison. Histological sections were obtained the day following treatment, fixed and stained.

[6] = cutaneous photosensitivity: response of the foot of the treated mice; type: in vivo; conditions: FIG. 3
Method: One of the undesirable side effects of photodynamic therapy using certain compounds is cutaneous photosensitivity unrelated to the target biological substrate. Accordingly, the effect of the treatment on the photosensitivity of the foot of the treated mice was measured. The response of the foot was measured as erythema and/or edema (or loss of skin or further damage).

| Compound | water solubility compared to bacteriochlorophyll-a [1] | wavelength absorption maximum [2] | extinction coefficient (E780) ([2]; 780 nm) | OD780 ([2]; for 1 mg/ml of concentrate, Tween-80/Hank's buffer formulation, measured at 1:100 dilution in distilled water) | tumor response (SMT-F tumors; 5 mg/kg i.v., irradiated after 2 hours, 670-790 nm range) | tumor response (SMT-F tumors; 10 mg/kg i.v., irradiated 24 hours after injection, 680-780 nm) | time of partial conversion to bacteriopheophytin in liver [3] [h] | composition of material in tumor ([4]; 24 hours after injection) | composition of material in tumor ([4]; 48 hours after injection) | time of partial conversion to bacteriopheophytin in tumor ([4]; tumor) [h] | oxidation stability (stability of bchla) | stability in vivo (stability of bchla; in vivo) | loss of magnesium ion in dilute acid (stability of bchla; presence of dilute acid) | necrotic depth [5] | sensitivity of the tumor and the skin of the foot over time [6] |
| --- | --- | --- | --- | --- | --- | --- | --- | --- | --- | --- | --- | --- | --- | --- | --- |
| CCC1c2cc3[nH]c4c(c3C)C(=O)C(C(=O)OC)c4c3nc(cc4[nH]c(cc(n2)C1C)c(C(C)=O)c4C)C(C)C3CCC(=O)O (stereo not shown) [bacteriochlorin-a] | enhanced water solubility | – | – | – | – | – | – | – | – | – | – | – | – | – | – |
| CCC1C2=Cc3c(C)c4c5[n]3[Mg][n]3c(c(C)c(C(C)=O)c3=CC(=N2)C1C)=CC1=NC(=C5C(C(=O)OC)C4=O)C(CCC(=O)O)C1C (stereo not shown) [bacteriochloro-phyllin-a] | enhanced water solubility | – | – | – | – | – | – | – | – | – | – | – | – | – | – |
| CCC1C2=Cc3c(C)c4c5[n]3[Mg][n]3c(c(C)c(C(C)=O)c3=CC(=N2)C1C)=CC1=NC(=C5C(C(=O)OC)C4=O)C(CCC(=O)OCC=C(C)CCCC(C)CCCC(C)CCCC(C)C)C1C (stereo not shown) [bchla, Bacteriochlorophyll-a] | – | about 780 nm | 75,000 | 87.3 | good response | good response | 2 | demetallized but still contains phytyl | mainly material without phytyl and without Mg | ≥ 24 | readily oxidized, especially in the presence of light | sufficiently stable in vivo to be an effective phototherapeutic agent | the magnesium ion is readily removed in the presence of dilute acid | approximately 9 mm | the sensitivity of the tumor and the skin of the foot declined concomitantly |
